In patent publication US20190031624A1, “THERAPEUTIC COMPOUNDS AND METHODS TO TREAT INFECTION” (priority 2017, published 2019):
Converted amounts (≈) assume the structure as drawn. Counter-ions that a name gives are not always drawn. Like-named read-outs stand apart in the source and are kept apart here.

Columns and labels:
E. coli 25922 [1] = experiment: MIC assay in the presence of a bacterial efflux pump inhibitor (EPI); format: cell-based, Escherichia coli; details: with 12.5 ug/ml of EPI (2S,4R)-4-(ammoniomethyl)-2-((6-(4-fluorophenyl)-1H-indole-2-carboxamido)methyl)pyrrolidin-1-ium, MIC90
Method: (§1) The ability of a compound to produce an antibiotic effect can be determined using a method as described in Example 21. Data for representative compounds used in combination with the efflux pump inhibitor [(2S,4R)-4-(ammoniomethyl)-2-((6-(4-fluorophenyl)-1H-indole-2-carboxamido)methyl)pyrrolidin-1-ium] is shown in Table 1.
(§2) MIC assays were conducted in accordance with Clinical and Laboratory Standards Institute (CLSI) guidelines for broth microdilution. A 96-well plate containing cation-adjusted Mueller-Hinton (CAMH broth with 2-fold serial dilution of compounds was inoculated with log-phase bacterial at 5×10^5 CFU/mL. The final volume in each well was 100 μL. Each compound was tested in duplicate. The microtiter plates were incubated in an aerobic environment for 18 hours at 37° C. Then the bacterial growth was tested by reading the plate with a VersaMax plate reader (Molecular Devices, Inc.) at 600 nm. The MIC was defined as the lowest compound concentration that inhibited 90% of bacteria growth.
(§3) Escherichia coli ATCC 25922
(§4) The EPI assay for the purposes of these studies represents a MIC assay in which the MIC of the antibiotic against the bacteria is tested in the presence of an experimental efflux pump inhibitor (EPI). The highest concentration of the EPI present in the assay typically is ½ of the intrinsic MIC of the compound. If the intrinsic MIC of the EPI is greater than 100 μg/mL, the EPI assay was tested with 50 μg/mL. Using serial dilutions of the EPI, its enhancement of antibiotic activity was then evaluated. The relative EPI activity was decided by comparing the MIC of the antibiotic in the presence of the EPI compound with the intrinsic MIC of the antibiotic alone. For comparative purposes, we generally used EPIs at concentration of 12.5 and 6.25 μg/ml against varying concentration of our test antibiotic.

P. aeruginosa PAO1 [2] = experiment: as above; format: cell-based, Pseudomonas aeruginosa; details: with 12.5 ug/ml of EPI (2S,4R)-4-(ammoniomethyl)-2-((6-(4-fluorophenyl)-1H-indole-2-carboxamido)methyl)pyrrolidin-1-ium, MIC90
Method: as §1, §2
(§5) Pseudomonas aeruginosa PAO1
as §4

E. coli 25922 [3] = experiment: Intrinsic MIC assay (CLSI broth microdilution); format: cell-based, Escherichia coli; details: for MIC: read-out: Antibiotic Activity Against E. coli: Intrinsic MIC
Method: as §2, §3

P. aeruginosa PAO1 [4] = experiment: Intrinsic MIC assay (CLSI broth microdilution); format: cell-based, Pseudomonas aeruginosa; details: for MIC: Pseudomonas aeruginosa, read-out: Antibiotic Activity Against P. aeruginosa: Intrinsic MIC
Method: as §2, §5

[5] = molecular target: T1, MexAB-OprM efflux transporter (Pseudomonas aeruginosa, UniProt P52002); details: wild-type P. aeruginosa; cited from earlier work
T1 construct: MexAB-OprM efflux transporter present in wild-type P. aeruginosa; endogenous in cells; host or cells: wild-type P. aeruginosa
T1 sequence (Q51487 18-485): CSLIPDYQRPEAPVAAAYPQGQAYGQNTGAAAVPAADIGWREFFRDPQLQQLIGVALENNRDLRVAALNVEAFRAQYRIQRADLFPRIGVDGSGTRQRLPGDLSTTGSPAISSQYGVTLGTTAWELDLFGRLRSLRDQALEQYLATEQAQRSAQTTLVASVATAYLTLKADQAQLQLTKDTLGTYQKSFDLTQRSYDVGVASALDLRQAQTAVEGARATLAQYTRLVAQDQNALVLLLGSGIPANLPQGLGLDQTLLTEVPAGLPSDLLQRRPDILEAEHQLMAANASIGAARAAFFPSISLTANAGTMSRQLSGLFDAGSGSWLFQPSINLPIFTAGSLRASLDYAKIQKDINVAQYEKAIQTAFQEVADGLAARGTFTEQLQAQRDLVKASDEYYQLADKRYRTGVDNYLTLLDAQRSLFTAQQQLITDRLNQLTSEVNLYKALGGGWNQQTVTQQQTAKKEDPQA
T1 sequence (P52477 24-383, further chain): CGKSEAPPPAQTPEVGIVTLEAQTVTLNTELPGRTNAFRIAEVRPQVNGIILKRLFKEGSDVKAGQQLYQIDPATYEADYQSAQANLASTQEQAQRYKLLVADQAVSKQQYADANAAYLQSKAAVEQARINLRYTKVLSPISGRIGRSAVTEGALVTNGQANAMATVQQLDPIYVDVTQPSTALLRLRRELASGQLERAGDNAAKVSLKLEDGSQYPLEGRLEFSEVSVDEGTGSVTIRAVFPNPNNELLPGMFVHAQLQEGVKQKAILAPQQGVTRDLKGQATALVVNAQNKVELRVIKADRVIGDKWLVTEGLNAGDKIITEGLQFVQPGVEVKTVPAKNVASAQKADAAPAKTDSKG
T1 sequence (P52002 whole entry): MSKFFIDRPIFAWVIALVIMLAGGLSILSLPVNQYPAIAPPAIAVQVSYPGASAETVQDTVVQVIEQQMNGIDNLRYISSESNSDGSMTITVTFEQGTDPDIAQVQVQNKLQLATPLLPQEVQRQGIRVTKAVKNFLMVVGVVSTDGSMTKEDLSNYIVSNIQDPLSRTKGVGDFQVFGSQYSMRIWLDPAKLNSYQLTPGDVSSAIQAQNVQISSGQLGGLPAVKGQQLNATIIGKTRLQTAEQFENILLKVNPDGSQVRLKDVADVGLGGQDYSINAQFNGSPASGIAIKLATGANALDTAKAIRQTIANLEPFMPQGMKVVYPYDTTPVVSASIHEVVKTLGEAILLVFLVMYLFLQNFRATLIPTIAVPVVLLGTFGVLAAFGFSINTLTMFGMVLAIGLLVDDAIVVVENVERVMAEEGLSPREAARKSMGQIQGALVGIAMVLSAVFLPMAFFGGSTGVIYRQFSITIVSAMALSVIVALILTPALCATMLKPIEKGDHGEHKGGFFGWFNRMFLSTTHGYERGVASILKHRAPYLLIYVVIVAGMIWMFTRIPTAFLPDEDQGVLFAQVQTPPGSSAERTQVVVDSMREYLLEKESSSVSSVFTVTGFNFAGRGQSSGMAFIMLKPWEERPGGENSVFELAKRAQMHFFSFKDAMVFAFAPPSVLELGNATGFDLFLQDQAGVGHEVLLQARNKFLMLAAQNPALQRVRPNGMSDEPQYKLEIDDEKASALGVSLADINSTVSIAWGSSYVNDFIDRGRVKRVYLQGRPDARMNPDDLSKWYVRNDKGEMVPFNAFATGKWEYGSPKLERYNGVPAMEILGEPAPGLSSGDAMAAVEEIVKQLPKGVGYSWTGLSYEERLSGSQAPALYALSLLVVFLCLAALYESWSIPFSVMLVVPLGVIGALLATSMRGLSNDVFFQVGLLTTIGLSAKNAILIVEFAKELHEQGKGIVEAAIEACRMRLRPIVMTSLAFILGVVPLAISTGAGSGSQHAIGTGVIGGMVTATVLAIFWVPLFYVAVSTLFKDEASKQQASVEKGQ

MreB = details: P. aeruginosa strains with defective efflux transporters; cited from earlier work
[6] = Escherichia coli, 18 h, E. coli 25922, without EPI, MIC90
[7] = 18 h, P. aeruginosa PAO1, without EPI, MIC90

Molecule | Antibiotic Activity Against E. coli: MIC with EPI (Enhancement) (E. coli 25922 [1]) | Antibiotic Activity Against P. aeruginosa: MIC with EPI (Enhancement) (P. aeruginosa PAO1 [2]) | MIC (E. coli 25922 [3]; [6]) | MIC (P. aeruginosa PAO1 [4]; [7]) | Antibiotic Activity Against E. coli: Intrinsic MIC (E. coli 25922 [3]; E. coli 25922, without EPI, MIC90) | Antibiotic Activity Against P. aeruginosa: Intrinsic MIC (P. aeruginosa PAO1 [4]; P. aeruginosa PAO1, without EPI, MIC90) | MIC (E. coli 25922 [3]; Escherichia coli, 25922, 18 h) | MIC (P. aeruginosa PAO1 [4]; PAO1, 18 h) | efflux transporter substrate [5] | MreB inhibition (MreB)
Br.N=C(N)SCc1ccc(Br)cc1 [Example 7, 4-Bromobenzyl Carbamimidothioate Hydrobromide] | >256 µg/mL | 1.0 µg/mL | > 256 µg/mL | > 256 µg/mL | – | – | – | – | – | –
CN1CN=C(SCc2ccc3ccccc3c2)NC1 [Example 13, 3-methyl-6-((naphthalen-2-ylmethyl)thio)-1,2,3,4-tetrahydro-1,3,5-triazine] | 16 µg/mL | 16 µg/mL | > 256 µg/mL | > 256 µg/mL | – | – | – | – | – | –
Isoquinolin-5-ylmethyl Carbamimidothioate Hydrobromide [Example 20] | >256 µg/mL | >256 µg/mL | – | – | >256 µg/mL | >256 μ/mL | – | – | – | –
Cl.N=C(N)SCc1ccc2ccccc2c1 [Example 12, naphthalen-2-ylmethyl Carbamimidothioate Hydrobromide] | 16 µg/mL | 4 µg/mL | > 256 µg/mL | > 256 µg/mL | – | – | – | – | – | –
N=C(N)SCc1ccc2sccc2c1 [Example 16, Benzo[b]thiophen-5-ylmethyl Carbamimidothioate Hydrobromide] | >256 µg/mL | 4 µg/mL | > 256 µg/mL | > 256 µg/mL | – | – | – | – | – | –
Br.CC(C)(C)c1ccc(CSC(=N)N)cc1 [Example 3, 4-(t-Butyl)Benzyl Carbamimidothioate Hydrobromide] | 256 µg/mL | 256 µg/mL | 256 µg/mL | > 256 µg/mL | – | – | – | – | – | –
Br.N=C(N)SCc1ccc(Cl)cc1Cl [Example 2, 2,4-Dichlorobenzyl Carbamimidothioate Hydrobromide] | >256 µg/mL | 1.0 µg/mL | > 256 µg/mL | > 256 µg/mL | – | – | – | – | – | –
Br.CC(SC(=N)N)c1ccc(Cl)c(Cl)c1 (stereo not shown) [Example 5, 1-(3,4-Dichlorophenyl)ethyl Carbamimidothioate Hydrobromide] | 256 µg/mL | 4.0 µg/mL | 256 µg/mL | > 256 µg/mL | – | – | – | – | – | –
N=C(N)SCc1cccc(Br)c1 [Example 8, 3-bromobenzyl Carbamimidothioate Hydrobromide] | >256 µg/mL | >256 µg/mL | – | – | – | – | > 256 µg/mL | > 256 µg/mL | – | –
N=C(N)SCc1ccc(Cl)c(Cl)c1 [Example A22, S-(3,4-Dichlorobenzyl)isothiourea] | – | – | – | – | – | – | – | – | substrate for the MexAB-OprM efflux transporter | effective MreB inhibitor
N=C(N)SCc1cccc(-c2ccc(F)cc2)c1 [Example 10, (4′-fluoro-[1,1′-biphenyl]-3-yl)methyl Carbamimidothioate Hydrobromide] | 64 µg/mL | >256 µg/mL | 64 µg/mL | > 256 µg/mL | – | – | – | – | – | –
N=C(N)SCCc1ccc(Cl)c(Cl)c1 [Example 4, 3,4-dichlorophenethyl carbamimidothioate] | 256 µg/mL | >256 µg/mL | 256 µg/mL (≈ 1030 µM) | > 256 µg/mL | – | – | – | – | – | –
CNC(=N)SCc1ccc(Cl)c(Cl)c1.Cl [Example 6, 3,4-dichlorobenzyl Methylcarbamimidothioate Hydrobromide] | >256 µg/mL | 4.0 µg/mL | > 256 µg/mL | > 256 µg/mL | – | – | – | – | – | –
Br.N=C(N)SCc1cccc2cccnc12 [Example 19, quinolin-8-ylmethyl Carbamimidothioate Hydrobromide] | >256 µg/mL | >256 µg/mL | > 256 µg/mL | > 256 µg/mL | – | – | – | – | – | –
N=C(N)SCc1ccc(C(F)(F)F)nc1 [Example 14, (6-(trifluoromethyl)pyridin-3-yl)methyl Carbamimidothioate Hydrochloride] | >256 µg/mL | >256 µg/mL | – | – | – | – | > 256 µg/mL | > 256 µg/mL | – | –
N=C(N)SCc1ccc2occc2c1 [Example 15, benzofuran-5-ylmethyl Carbamimidothioate Hydrobromide] | >256 µg/mL | 4 µg/mL | > 256 µg/mL | 16 µg/mL | – | – | – | – | – | –
N=C(N)SCc1ccc2ncccc2c1 [Example 18, quinolin-6-ylmethyl Carbamimidothioate Hydrobromide] | >256 µg/mL | >256 µg/mL | > 256 µg/mL | > 256 µg/mL | – | – | – | – | – | –
N=C(N)SCc1cccc2ccccc12 [Example 11, naphthalen-1-ylmethyl Carbamimidothioate Hydrobromide] | >256 µg/mL | >256 µg/mL | > 256 µg/mL | > 256 µg/mL | – | – | – | – | – | –
CC(C)(C)OC(=O)n1ccc2cc(CSC(=N)N)ccc21 [Example 17, t-Butyl 5-((carbamimidoylthio)methyl)-1H-indole-1-carboxylate] | 128 µg/mL | >256 µg/mL | > 128 µg/mL | > 256 µg/mL | – | – | – | – | – | –
Cl.N=C(N)SCc1ccc(Cl)c(Cl)c1 [Example 1, 3,4-Dichlorobenzyl Carbamimidothioate Hydrobromide] | 4 µg/mL | 0.5 µg/mL | 64 µg/mL | > 256 µg/mL | – | – | – | – | – | –
Br.N=C(N)SCc1ccc(-c2ccc(F)cc2)cc1 [Example 9, (4′-fluoro-[1,1′-biphenyl]-4-yl)methyl Carbamimidothioate Hydrobromide] | 64 µg/mL | >256 µg/mL | 64 µg/mL | > 256 µg/mL | – | – | – | – | – | –
